# Patent publication US8742156B2 (priority 2010, dated 2014)
# Counter-ions that a name gives are not always drawn.
# Test system: H1N1 virus (A/Vicotria/07159200/07 (Tamiflu-resistant strain))
# Format: cell-based, Human influenza H1N1 virus
# Details: for effect on viral titers of Tamiflu-resistant (Tami-R) H1N1 virus: FIG. 1, multiplicity of infection of 0.2
smiles,measurement,setting,value
"N=C(Nc1ccccc1)SCCCSC(=N)Nc1ccccc1 [Compound 58, Carbamimidothioic acid, phenyl-, 1,3-propanediyl ester, dihydrobromide]",effect on viral titers of Tamiflu-resistant (Tami-R) H1N1 virus,,potent inhibitory effects
same,viral titer of Tami-R H1N1-infected cells decreased (fold),"FIG. 1, multiplicity of infection of 0.2, 48-hour post-infection",4 fold
"CCOC(=O)C1=C[C@@H](OC(CC)CC)[C@H](NC(C)=O)[C@@H](N)C1 [Tamiflu, oseltamivir, reference compound]",Tami-R H1N1 viral titers decreased (%),"10 uM, multiplicity of infection of 0.2, 48-hour post-infection",20%
same,effect on viral titers of Tamiflu-resistant (Tami-R) H1N1 virus,,minimal effects
